The values that follow are results of earlier work, collected in patent US20240207270A1, “COMPOUNDS AND COMPOSITIONS FOR MODULATING LIPID METABOLISM” (WaveBreak Inc., priority 2021, published 2024).

This series concerns the target ROCK. Particulars: ATP-competitive inhibitor of ROCK.

What is called Ki is a dissociation constant, usually derived from enzyme kinetics or from competition with a known ligand. Regarding `Cc1cncc2cccc(S(=O)(=O)N3CCCNC[C@@H]3C)c12` [(S)-H-1152], the Ki was 1.6 nM.
